A melting point compilation (Tetko et al.; mined from patent text by program, amines drawn as free bases though some values may be those of a salt)

| Structure (SMILES) | melting point |
| --- | --- |
| O=C(O)c1ccc(OC(=O)c2cccc(C34CC5CC(CC(C5)C3)C4)c2)cc1 | 237 to 239 °C |
| NNCc1ccccc1S(=O)(=O)O | 257 to 262 °C |
| Clc1ccc2nc(-c3ccsc3)cn2n1 | 203 to 205 °C |
| O=C(O)C1(CCCCCCCCCCCCC2(C(=O)NC3CC3)CC2)CC1 | 95.3 to 97.7 °C |
| CCC(CO)Nc1cc(C)nc(Oc2c(C)cc(Cl)cc2C)c1CO (stereo not drawn) | 133 to 135 °C |
| O=S(=O)(O)c1ccc(Oc2ccc(-n3ccnc3)cc2)cc1 | 80 °C |
| CCc1cc(CO)c(OC)nc1C | 53 to 55 °C |
| COC(=O)c1nc(-c2ccc(Cl)cc2F)nc(N)c1Br | 186 to 188 °C |
| CN1CCC23CCCCC2C1Cc1ccc(Oc2nc(-c4ccccc4)nc4ccccc24)cc13 (single isomer, unassigned; (+)) | 138 to 139 °C |
| CCc1cc(C(C)(C)c2ccc(C(C)(C)c3cc(CC)c(NC)c(CC)c3)cc2)cc(CC)c1NC | 105 to 108 °C |
| COc1c([N+](=O)[O-])ncn1C | 140 to 141 °C |
| CCCCCCCCCCCCN=C1SC(=CC(=O)O)C(=O)N1CCCCCCCCCCCC | 71 to 72 °C |
| Cc1c(S(=O)(=O)C(F)(F)F)cnn1-c1c(Cl)cc(C(F)(F)F)cc1Cl | 83 to 85 °C |
| COC(=O)c1nc(-c2cnco2)cc(N)c1Cl | 166 to 170 °C |
| O=C(C=CCl)CCCN1C(=O)c2ccccc2C1=O | 92 °C |
| O=C1CCC(c2ccccc2)(c2ccccc2)C2CN(C(Cc3ccccc3)=NCCc3ccccc3)CC12 (stereo not drawn) | 188 °C |
| CSCCC(=O)N(C)c1sc(-c2cncc(F)c2)nc1C#N | 97 to 98 °C |
| CC(C)(C)OC(=O)N1CCN(c2ccc(N)cc2)CC1 | 95 to 96 °C |
| Cc1ccc(OCC(O)CNC(C)(C)C)c([N+](=O)[O-])c1[N+](=O)[O-] (stereo not drawn) | 104 to 106 °C |
| CN1CC(C(=O)COC(=O)c2cncc(Br)c2)CC2c3cccc4[nH]cc(c34)CC21 (stereo not drawn) | 185 to 187 °C |
| CCOC(=O)COc1cccc2c1OCCC2=O | 56 to 66 °C |
| CC(C)(C)c1cc(C(=O)c2cccs2)cc(CN2CCOCC2)c1O | 148 °C |
| Cc1cc(NC(=O)Nc2ccc(N(CCCl)CCCl)cc2)cc(Nc2c3ccccc3nc3ccccc23)c1 | 280 to 285 °C |

| Structure (SMILES) | melting point |
| --- | --- |
| CC(=O)Nc1ccccc1NS(=O)(=O)c1cc(C(=O)O)cc([N+](=O)[O-])c1Oc1ccccc1 | 224 to 226 °C |
| CCOC(=O)CO/N=C(\C(=O)Sc1nc2ccccc2s1)c1cc[nH]n1 | 112 to 114 °C |
| CCc1nn(CCO)c(CC)c1Oc1cc(C#N)cc(S(C)(=O)=O)c1 | 133 °C |
| CON=C(C)CCN1C(=O)c2ccccc2C1=O | 55 to 64 °C |
| CC(=O)Nc1cc2c(cc1[N+](=O)[O-])OC(C)(C)[C@@H](O)[C@@H]2N1CCCC1=O (relative stereo) | 240 to 241 °C |
| COc1cc2c(cc1C(F)(F)F)N(C(=O)Nc1cncc(Br)c1)CC2 | 220 to 222 °C |
| CN1CC(CN2CC(=O)NC2=O)C=C2c3cccc4[nH]cc(c34)CC21 (stereo not drawn) | 282 to 284 °C |
| COc1cccc(C=C2NC(=O)NC2=O)c1 | 229 to 231 °C |
| CCCCOc1ncc(C(C)=O)cc1-c1nn2c(CC)nc(C)c2c(=O)[nH]1 | 190 to 196 °C |
| COc1ncnc(-c2cc([N+](=O)[O-])c(F)cc2F)c1Cl | 84 to 88 °C |
| CS(=O)(=O)Nc1cccc(-c2cccc(-c3nc(-c4ccc(C(F)(F)F)cc4)cc(C(F)(F)F)n3)c2)c1 | 191 °C |
| O=C(c1c(F)cccc1F)N1COCN(c2ccc(SC(F)(F)C(F)(F)F)cc2F)C1=O | 47 to 50 °C |
| CCc1nn(CCC(N)=O)c(CC)c1Cc1cc(Cl)cc(Cl)c1 | 140 to 142 °C |
| FC(F)(F)Oc1ccc(-c2cncc(Cl)n2)cc1 | 58 to 60 °C |
| O=C1CCC(O)(c2ccc(F)c(F)c2)CC1 | 84 to 85 °C |
| c1ccc(-c2nc(SCCCSCCCSc3nc(-c4ccccc4)c(-c4ccccc4)[nH]3)[nH]c2-c2ccccc2)cc1 | 208 to 209 °C |
| ONc1ccccc1F | 70 to 71 °C |
| CCCC(CC(=O)NC(=O)OC(C)(C)C)Nc1ccccc1 (stereo not drawn) | 103 to 104 °C |
| CS(=O)(=O)NC(=O)CNC(=O)NCCCCC1CCSS1 (stereo not drawn) | 157 to 158 °C |
| Cc1c(C#N)c(=O)n(-c2cc(C(=O)OC(C)C)c(Cl)cc2F)c(=O)n1C | 171 to 173 °C |
| CC(C)N(CCC(C(N)=O)(c1ccc(O)cc1)c1ccccn1)C(C)C (stereo not drawn) | 148 to 151 °C |
| CCCCCCCCCCCCC1=C(OC(C)=O)C(=O)c2c(Cl)cccc2C1=O | 57 to 59 °C |

The next lines start with the values.

| melting point | Structure (SMILES) |
| --- | --- |
| 107 to 108 °C | CCOC(=O)/C=C/c1nc(COc2ccc(CCl)cc2OC)c(C)o1 |
| 142 to 146 °C | O=C1c2cc(O)ccc2OCC1Oc1ccccc1 (stereo not drawn) |
| 193 to 195 °C | O=c1[nH]ncc2[nH]c(-c3ccc(OC(F)F)c(OC4CC4)c3)c(Cc3ccc(F)cc3)c12 |
| 192 °C | C#CCOc1cc(C(=O)O)cc(N)c1C(=O)c1ccccc1 |
| 240 to 244 °C | NC(=O)[C@@H]1[C@H](Nc2ccnc3[nH]c(-c4ccc(N5CCOCC5)cc4)nc23)[C@H]2C=C[C@@H]1C2 |
| 193 to 196 °C | OC1CSC(Oc2cncc(-c3cccnc3F)c2)C(O)C1O (stereo not drawn) |
| 120 to 121 °C | COc1cc(COc2ncccc2C=O)ccc1OCc1nc(-c2ccco2)oc1C |
| 190 to 195 °C | NCC1CN(c2c(F)cc3c(=O)c(C(=O)O)cn(C4CC4)c3c2F)C1 |
| 147 °C | COc1ccc(COc2cc(NC(C)=O)c(Cl)cc2C(=O)CCCCCl)cc1OC |
| 130 to 132 °C | CCc1ccc(C(=NO)c2ccc(F)cc2)c(O)c1 |
| 79 to 80 °C | Fc1ccc(C#CC2=CCN(Cc3coc4ccccc34)CC2)cc1 |
| 65 to 66 °C | COc1cc(Cc2nnc(N[C@H]3CC[C@H](C(C)C)CC3)c3ccccc23)ccn1 |
| 207 to 209 °C | Cc1nc2c(OCc3c(Cl)ccc(N(C)C=O)c3Cl)cccn2c1Br |
| 118 to 120 °C | Cc1nc2c(OCc3ccccc3)cc(C(=O)N(C)C)cc2n1COCC[Si](C)(C)C |
| 244 to 248 °C | NC(=O)c1sc2nccc(N3CCCN(c4ccc([N+](=O)[O-])cc4)CC3)c2c1N |
| 129 to 130 °C | CNC(=O)C(=O)c1ccccc1COc1cc(C)ccc1C |
| 197 to 198 °C | O=C(NC1CCCCC1)NS(=O)(=O)c1ccc(CCNC(=O)N2CCc3ccccc3C2=O)cc1 |
| 225 to 227 °C | CNc1c(F)cc2c(=O)c(C(=O)O)cn(-c3cc(N)c(F)cc3F)c2c1OC |
| 99 to 100 °C | COC(=O)c1cc2c(Oc3ccc(Cl)cc3)cncc2s1 |
| 246 to 247 °C | NC(=O)C1CCc2[nH]c3ccc(Cl)c(Cl)c3c2C1 (stereo not drawn) |
| 127 to 129 °C | CC(=O)C(C)Oc1nn(C(C)C(C)=O)c(-c2ccc(S(C)(=O)=O)cc2)c1-c1ccc(F)cc1 (stereo not drawn) |
| 286 °C | Cn1c(=O)c(C#N)c(N2CCN(C(=O)c3cccs3)CC2)c2cc(F)ccc21 |
| 175 to 178 °C | Oc1cccc(-c2noc3ncccc23)c1 |
| 190 to 192 °C | CCOC(=O)c1cn(-c2ccc(F)cc2F)c2nc(OC)c(F)cc2c1=O |
| 87 to 88 °C | CC1(C(=O)O)c2ccccc2Oc2ccccc21 |
| 207 °C | COc1cc(Cc2cnc(NC(C)=N)nc2N)cc(OC)c1OC |
| 197 to 199 °C | O=C(O)c1cccnc1Nc1cccc(Cl)c1 |

| melting point | Structure (SMILES) |
| --- | --- |
| 144 °C | O=C(C=Cc1ccc(O)c(O)c1O)OCCc1ccccc1 |
| 129 to 131 °C | CCCN(CCCC(=O)Nc1c(C(C)C)nc(C)nc1N(CC)CC)c1ccccc1 |
| 187 to 188 °C | CCCc1nc2c(N)nc3cccnc3c2n1C1(OC)CCCCC1 |
| 124 °C | CCOCCO[C@@H]1c2ccn3c(C)c(C)nc3c2N[C@H](c2ccccc2)[C@H]1OC(=O)OCCCC(Cl)CC (stereo partly drawn) |
| 222 to 225 °C | COC(=O)c1cc(-c2ccc3occc3c2)n[nH]c1=O |
| 186 to 188 °C | CN(C)c1cccc2nc3cccc(C(=O)O)c3nc12 |
| 136 to 137 °C | COC(=O)CC[C@H]1C(=O)N(c2ccc(F)cc2)[C@@H]1c1ccc(O)cc1 |
| 114 °C | COc1ccc2oc(C(=O)OCC(C)(C)C(O)C(C)(C)C)cc2c1 (stereo not drawn) |
| 135 to 136 °C | Cc1ccc(C)c(C(CCC(=O)O)Oc2cc(OCc3ccsc3)ccc2C#N)c1 (racemic) |
| 190 to 191 °C | COc1cc(CC(=O)Nc2nn(-c3ccccc3)cc2C=O)ccc1OCc1nc(-c2ccco2)oc1C |
| 108 to 109 °C | Fc1cccc(N=C2SCCN2C(=S)Nc2cccc(F)c2)c1 |
| 145 to 147 °C | Cc1c(C)c2c(c(C)c1NC(=O)CC(C)(C)C)C(c1ccc(C(C)CCO)cc1)CO2 (stereo not drawn) |
| 164 to 166 °C | CC(C)n1nc(-c2c(NCCN(C)C)nc(N)nc2-c2ccccc2)ccc1=O |
| 114 to 116 °C | COc1c(C)c(N2CCN(c3ccc(F)cc3)CC2)c(C)c2c1OC(C)C2 (stereo not drawn) |
| 272 to 274 °C | CCOC(=O)c1cc2n(C)c3ccc(Cl)cc3c(=O)n2n1 |
| 60 to 61 °C | CCOC(=O)Cc1nc(-c2ccc(F)cc2)oc1CC(C)C |
| 84 to 86 °C | CN(C)CCOc1nccc(-c2c(-c3ccc(F)cc3)ncn2C2CCC(=O)CC2)n1 |
| 132 to 133 °C | c1ccc(-c2nc(-c3ccc(OCCCn4ccnc4)cc3)no2)cc1 |
| 123 °C | CCCCCCCNC(=O)N(C)c1cccc(-c2ccc(C=C(C)C(=O)O)cc2OCC)c1 |
| 235 to 236 °C | NS(=O)(=O)c1cc(C(=O)O)cc(SCc2ccccc2)c1Oc1ccccc1 |
| 178 to 180 °C | CC(COc1ccc(-n2nc3c(cc2=O)CCc2ccc(F)cc2-3)cc1)N(C)C (stereo not drawn) |
| 169 to 172 °C | Oc1c(Cl)cc(Cn2c(=S)sc3ccccc32)cc1Cl |
| 69 to 73 °C | Clc1cccc(Nc2ccc(Oc3ccccc3)cc2)n1 |
| 176 to 177 °C | Cc1c2c(c(C(O)c3ccccn3)c(C)c1NC(=O)CC(C)(C)C)OC(C)(C)C2 (stereo not drawn) |
| 150 to 152 °C | Cc1cnc(CCCCNc2ncc(Cc3ccc(CO)nc3)c(=O)[nH]2)c(Br)c1 |
| 134 to 136 °C | O=C(NCc1ccc(F)c(F)c1)c1ccnc(N2CCN(CC3CC3)C2=O)c1 |
